According to ChEMBL document CHEMBL1201862, “PubChem BioAssay data set” (2004):
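Each compound was tested at five concentrations against cells in 96-well plates for 48 hours. Here, GI50 denotes the concentration required for 50% inhibition of growth.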 Calls of active or inactive are those of the source. Cut-off read from the data, not from the text of the source: active = GI50 up to about 1.1 µM and inactive = higher.

Columns and labels:
Assay in all cases: DTP human tumour cell line panel, 48 h
[1] = tested on: A498
[2] = tested on: ACHN
[3] = tested on: DLD-1
[4] = tested on: HL-60
[5] = tested on: HT-29
[6] = tested on: M14
[7] = tested on: NCI-H522
[8] = tested on: OVCAR-8
[9] = tested on: RXF 393
[10] = tested on: SF-539
[11] = tested on: SK-MEL-28
[12] = tested on: SK-MEL-2
[13] = tested on: SK-OV-3
[14] = tested on: SNB-19
[15] = tested on: TK-10
[16] = tested on: U-251
[17] = tested on: DU-145
[18] = tested on: MCF7
[19] = tested on: MDA-MB-435
[20] = tested on: T47D

| Structure (SMILES) | GI50 [1] | GI50 [2] | GI50 [3] | GI50 [4] | GI50 [5] | GI50 [6] | GI50 [7] | GI50 [8] | GI50 [9] | GI50 [10] | GI50 [11] | GI50 [12] | GI50 [13] | GI50 [14] | GI50 [15] | GI50 [16] | GI50 [17] | GI50 [18] | GI50 [19] | GI50 [20] |
| --- | --- | --- | --- | --- | --- | --- | --- | --- | --- | --- | --- | --- | --- | --- | --- | --- | --- | --- | --- | --- |
| Cc1ccc2c(c1)c(=O)c1c(NCCN(C)C)ccc3nnn2c31 | 4.88 µM (inactive) | 3.06 µM (inactive) | 2.88 µM (inactive) | 2.1 µM (inactive) | 1.47 µM (inactive) | 4.25 µM (inactive) | 4.81 µM (inactive) | 2.98 µM (inactive) | 2.88 µM (inactive) | 5.26 µM (inactive) | 5.42 µM (inactive) | 8.04 µM (inactive) | 3.56 µM (inactive) | 6.34 µM (inactive) | 3.95 µM (inactive) | 4.23 µM (inactive) | – | – | – | – |
| Cc1cc(NCCCCCCNc2cc(C)nc3cc(N(C)C)ccc23)c2ccc(N(C)C)cc2n1 | > 100 µM (inactive) | 99.8 µM (inactive) | 39.3 µM (inactive) | 3.19 µM (inactive) | 36.1 µM (inactive) | 49.9 µM (inactive) | 10.6 µM (inactive) | 31 µM (inactive) | > 100 µM (inactive) | 59.6 µM (inactive) | 29.2 µM (inactive) | 32.2 µM (inactive) | 12.3 µM (inactive) | 1.67 µM (inactive) | > 100 µM (inactive) | 28.2 µM (inactive) | – | – | – | – |
| COc1ccc(C[C@@H]2NC[C@@H](O)[C@@H]2OC(C)=O)cc1 | 0.0157 µM (active) | 0.011 µM (active) | 1.77 µM (inactive) | 0.00374 µM (active) | 0.0197 µM (active) | 0.0185 µM (active) | 0.0232 µM (active) | 0.0189 µM (active) | 0.00641 µM (active) | 0.0234 µM (active) | 0.0206 µM (active) | 0.039 µM (active) | 0.0169 µM (active) | 0.0228 µM (active) | 0.0312 µM (active) | 0.0173 µM (active) | 0.0191 µM (active) | 0.0135 µM (active) | 0.0168 µM (active) | 0.0227 µM (active) |
| C[N+]1(CCNP(=S)(NCC[N+]2(C)Cc3c(ccc4c3OCO4)C3C2c2cc4c(cc2C[C@@H]3O)OCO4)NCC[N+]2(C)Cc3c(ccc4c3OCO4)C3C2c2cc4c(cc2C[C@@H]3O)OCO4)Cc2c(ccc3c2OCO3)C2C1c1cc3c(cc1C[C@H]2O)OCO3 (stereo partly specified) | < 0.00191 µM (active) | < 0.00191 µM (active) | < 0.00191 µM (active) | < 0.00191 µM (active) | < 0.00191 µM (active) | < 0.00191 µM (active) | < 0.00191 µM (active) | < 0.00191 µM (active) | < 0.00191 µM (active) | < 0.00191 µM (active) | < 0.00191 µM (active) | < 0.00191 µM (active) | < 0.00191 µM (active) | < 0.00191 µM (active) | < 0.00191 µM (active) | < 0.00191 µM (active) | – | – | – | – |
| CC(N)Cc1cccc(C(F)(F)F)c1 (stereo unspecified) | > 100 µM (inactive) | > 100 µM (inactive) | > 100 µM (inactive) | > 100 µM (inactive) | > 100 µM (inactive) | > 100 µM (inactive) | > 100 µM (inactive) | > 100 µM (inactive) | > 100 µM (inactive) | > 100 µM (inactive) | > 100 µM (inactive) | > 100 µM (inactive) | > 100 µM (inactive) | > 100 µM (inactive) | > 100 µM (inactive) | > 100 µM (inactive) | – | – | – | – |
| C=C(C)C(O)CCC1(C)C=Cc2c(c(C)cc3c2[nH]c2ccccc23)O1 (stereo unspecified) | 13.6 µM (inactive) | 4.86 µM (inactive) | 7.28 µM (inactive) | 6.68 µM (inactive) | 4.72 µM (inactive) | 5.05 µM (inactive) | 4.91 µM (inactive) | 9.08 µM (inactive) | 0.245 µM (active) | 4.27 µM (inactive) | 16.7 µM (inactive) | – | 23.3 µM (inactive) | 15.2 µM (inactive) | > 25 µM (inactive) | 5.01 µM (inactive) | 12.6 µM (inactive) | 12.3 µM (inactive) | 8.41 µM (inactive) | 7.83 µM (inactive) |
| N#CC12C3C4CC5C6C4C1C6C(O)(C53)N2Cc1ccccc1 (stereo unspecified) | > 100 µM (inactive) | > 100 µM (inactive) | > 100 µM (inactive) | > 100 µM (inactive) | > 100 µM (inactive) | > 100 µM (inactive) | > 100 µM (inactive) | > 100 µM (inactive) | > 100 µM (inactive) | > 100 µM (inactive) | > 100 µM (inactive) | > 100 µM (inactive) | > 100 µM (inactive) | > 100 µM (inactive) | > 100 µM (inactive) | > 100 µM (inactive) | – | – | – | – |
| CC(=O)Nc1ccc(C(=O)NN2C(=O)C(Cl)C2c2ccccc2)cc1 (stereo unspecified) | > 100 µM (inactive) | > 100 µM (inactive) | > 100 µM (inactive) | > 100 µM (inactive) | > 100 µM (inactive) | > 100 µM (inactive) | > 100 µM (inactive) | > 100 µM (inactive) | > 100 µM (inactive) | > 100 µM (inactive) | > 100 µM (inactive) | > 100 µM (inactive) | > 100 µM (inactive) | > 100 µM (inactive) | > 100 µM (inactive) | > 100 µM (inactive) | – | – | – | – |
| CC(O)CCCOC(c1ccccc1)(c1ccccc1)c1ccccc1 (stereo unspecified) | 20.1 µM (inactive) | 14.6 µM (inactive) | 17.2 µM (inactive) | 17.6 µM (inactive) | 13.2 µM (inactive) | 15.5 µM (inactive) | 13.7 µM (inactive) | 14.7 µM (inactive) | 14.7 µM (inactive) | 17.2 µM (inactive) | 16.4 µM (inactive) | 15.1 µM (inactive) | 16.6 µM (inactive) | 16 µM (inactive) | 16.6 µM (inactive) | 16.4 µM (inactive) | 16.6 µM (inactive) | 14.7 µM (inactive) | 16.5 µM (inactive) | – |
| Cn1c2ccccc2c2cc(-c3ccccc3)c3c(c21)C(=O)C=CC3=O | 22.5 µM (inactive) | 19.8 µM (inactive) | 13.6 µM (inactive) | 4.52 µM (inactive) | 17.5 µM (inactive) | 21.1 µM (inactive) | 17.5 µM (inactive) | 30.3 µM (inactive) | 15.8 µM (inactive) | 27.3 µM (inactive) | 20.4 µM (inactive) | 22.4 µM (inactive) | > 88.1 µM (inactive) | 36.6 µM (inactive) | 17.1 µM (inactive) | 18.8 µM (inactive) | 82.8 µM (inactive) | 12.3 µM (inactive) | 15.1 µM (inactive) | 9.55 µM (inactive) |
| CCC(C)(O)c1cn(-c2ccc(S(=O)(=O)O)cc2)nn1 (stereo unspecified) | > 100 µM (inactive) | > 100 µM (inactive) | > 100 µM (inactive) | > 100 µM (inactive) | > 100 µM (inactive) | > 100 µM (inactive) | > 100 µM (inactive) | > 100 µM (inactive) | > 100 µM (inactive) | > 100 µM (inactive) | > 100 µM (inactive) | > 100 µM (inactive) | > 100 µM (inactive) | > 100 µM (inactive) | > 100 µM (inactive) | > 100 µM (inactive) | – | – | – | – |
| CC1=CC[C@@H](C(C)(C)O)C[C@@H]1O | > 5000 µM (inactive) | > 5000 µM (inactive) | > 5000 µM (inactive) | 3940 µM (inactive) | > 5000 µM (inactive) | > 5000 µM (inactive) | > 5000 µM (inactive) | > 5000 µM (inactive) | > 5000 µM (inactive) | > 5000 µM (inactive) | > 5000 µM (inactive) | > 5000 µM (inactive) | > 5000 µM (inactive) | > 5000 µM (inactive) | > 5000 µM (inactive) | > 5000 µM (inactive) | – | – | – | – |
